The text below walks through data of paper PMC6395531 (Journal of medicinal chemistry, 2019).

For data set [1], the system named is Salmonella typhimurium (TA98, TA100, TA1535, TA1537) and Escherichia coli (WP2 uvrA). Put plainly: Bacterial reverse mutation assay. The conditions noted are these: presence and absence of S9; monotartaric salts; 1.5 to 5000 μg/plate.
The nature of data set [2]: Caco-2 bidirectional permeability. Type of data set: in vitro ADME. The conditions noted are these: Table 3. Background: Caco-2 cells form a polarised layer with tight junctions and transporters.
Data set [3] in a line: Pharmacokinetics of 29 in rats. The following applies: male, Sprague-Dawley, rat, in vivo.

For the compound `CCc1ccc2nc(N3CCC(N[C@H]4CCCC[C@@H]4O)CC3)c(-c3nc(C)no3)cc2c1` [Compound 34, (1S,2S)-2-((1-(6-ethyl-3-(3-methyl-1,2,4-oxadiazol-5-yl)quinolin-2-yl)piperidin-4-yl)amino)cyclohexanol], in data set [1], the “mutagenicity in the TA1537 strain (Ames assay)” value was “exhibited mutagenicity in the TA1537 strain in the presence and absence of S9”.
On the same count and under the same terms, the value for `CCc1ccc2nc(N3CCC(N[C@@H](C)C(C)C)CC3)c(-c3nc(C)no3)cc2c1` [Compound 33, (S)-1-(6-ethyl-3-(3-methyl-1,2,4-oxadiazol-5-yl)quinolin-2-yl)-N-(3-methylbutan-2-yl)piperidin-4-amine] was “showed a mutagenic response in the TA1537 strain but only in the absence of S9”.
Turning to `CCc1ccc2nc(N3CCC(NCC4(C)COC4)CC3)c(-c3nc(C)no3)cc2c1` [Compound 35, 1-(6-ethyl-3-(3-methyl-1,2,4-oxadiazol-5-yl)quinolin-2-yl)-N-((3-methyloxetan-3-yl)methyl)piperidin-4-amine], the “mutagenicity in the TA1537 strain (Ames assay)” value in data set [1] was “exhibited mutagenicity in the TA1537 strain in the presence and absence of S9”.
Still for that read-out and setting: for `CCc1ccc2nc(N3CCC(N[C@@H]4CCCOC4)CC3)c(-c3nc(C)no3)cc2c1` [Compound 36, (R)-1-(6-ethyl-3-(3-methyl-1,2,4-oxadiazol-5-yl)quinolin-2-yl)-N-(tetrahydro-2H-pyran-3-yl)piperidin-4-amine] the value was “showed a mutagenic response in the TA1537 strain but only in the absence of S9”.
For orientation: AUC(0-inf) means total exposure, with the tail of the curve extrapolated. Lower therefore signals less exposure. Consider `Cc1ccc2nc(N3CCC(NC4CCOCC4)CC3)c(-c3nc(C)no3)cc2c1` [Compound 29, 1-(6-methyl-3-(3-methyl-1,2,4-oxadiazol-5-yl)quinolin-2-yl)-N-(tetrahydro-2H-pyran-4-yl)piperidin-4-amine], for which the “Caco-2 cells A-B” value in data set [2] stood at 26.2 ×10⁻⁶ cm/s. The AUC(0-inf) in data set [3] (iv, 1 mg/kg) was 212 ng·h/mL; in data set [3] (po, 2 mg/kg), 28.4 ng·h/mL.
